According to publication PMC12400753 (Respiratory Research, 2025):

Legend:
[1] = test system: bleomycin-induced lung fibrosis; assay: Intratracheal bleomycin mouse model (14 day, prophylactic dosing); format: in vivo; details: for body weight improvement over bleomycin alone: day 14
Experimental: Intratracheal instillation of bleomycin results in acute alveolar cell damage, inflammation, and subsequent tissue remodeling and is a widely used preclinical IPF model.
Female C57BL6/N mice 8–10 weeks old were obtained from Charles River. […] Bleomycin was administered by oropharyngeal instillation 23 h after first dose (Day 0). On the day of instillation, bleomycin was prepared by diluting a 15 unit (U) vial to 1.5 U/mL with sterile saline. Mice were lightly anesthetized with isoflurane (5% in 100% O2) and administered sterile saline or bleomycin (3.0 U/kg) via oropharyngeal instillation at a dose volume of 2 mL/kg (2 µL/g). Mice were returned to their cages and monitored daily for the duration of each experiment. […] Fourteen days after bleomycin instillation, mice were euthanized via isoflurane anaesthesia, cardiac blood collected into K3EDTA tubes and stored on wet ice, and BALF and lungs were isolated for subsequent analysis of biochemical and histopathological indices of lung injury, inflammation, and fibrosis. To do this, mice were intubated with a 20-gauge luer stub adapter connected to a 3-way stopcock fitted with two 3 mL syringes (the delivery syringe was pre-filled with 1.5 mL phosphate buffered saline (PBS), and the receiving syringe was empty). Lungs were lavaged with PBS (2 × 0.75 mL) to obtain BALF. BALF was placed on wet ice until centrifugation to separate from cells. Lungs were dissected and placed into 1 mL 6 M HCl for collagen analysis using the Quickzyme total collagen assay kit according to manufacturer’s instructions. At the end of the experimental collection, BALF was centrifuged (300 x g, 10 min, 4 °C) to isolate BALF from the cell pellet. The cell pellet was discarded and the BALF aliquoted and stored at −80 °C for biomarker analysis. For the analysis, n = 8 biological replicates were analyzed in singlicate for various biomarkers (total protein, TGFβ1, TIMP-1, procollagen) according to manufacturer’s recommended instructions.

[2] = test system: bleomycin-induced lung fibrosis; assay: Systemic (subcutaneous) bleomycin mouse model; format: in vivo; details: 3 mg/kg oral once a day, therapeutic
Experimental: Mice were injected subcutaneously with bleomycin (0.1 units/day), on a schedule of 5 days on/2 days off to induce fibrosis. […] Dosing was maintained until study end, at which point lung tissues were collected. The right lobe was snap frozen and processed for collagen analysis for hydroxyproline; the left lobe was sectioned and stained with Masson’s trichrome stain for histological assessment of tissue collagen. This study was conducted by Inotiv (West Lafayette, IN). Forty-four female 9 week old C57Bl/6 mice (Jackson Labs) were provided standard chow (Envigo, Cat #: 8940), housed under standard conditions, and allowed to acclimate for > 3 days prior to enrollment. Prior to start, mice were weighed and placed into balanced enrollment groups. Four days prior to start, mice were anesthetized, dorsal fur shaved and removed with depilatory agent, and two circles (~ 1.5 cm diameter) heat-branded on their dorsal abdomen. Fur was removed as needed for the balance of the study to ensure consistent location of s.c. injections. Beginning on day 0 and through day 26, mice were anesthetized with isoflurane and administered 0.9% NaCl or bleomycin injections (100 µl/injection, s.c.) into each of the circles (2 injections/mouse/d) on a 5 day on/2 day off paradigm. Mice were administered 0.9% NaCl (vehicle) or bleomycin (0.1 U) with bleomycin doses split evenly between the two circles (i.e., 0.05 U/circle). […] Weight measures and health observations were made daily. On day 27, mice were dosed to enable trough blood/plasma collection on day 28, which was collected via retro-orbital approach under isoflurane anesthesia. Following blood collection, mice were administered vehicle or compound on a timetable as appropriate to enable a peak blood collection 2 h postdose. At the time of sacrifice, mice were anesthetized with pentobarbital, a tracheotomy performed and interfaced with a positive pressure ventilator providing 100% O2. The mouse’s chest was then opened, and a needle interfaced with an infusion pump introduced to the right ventricle. […] The lungs were then harvested, immediately immersed in ice-cold 0.9% NaCl, gross dissected and subjected to morphological analyses. Tissue samples will be processed for biochemical and/or histological analyses as described below. Masson’s Trichrome Blue stained slides were subjected to histological analyses using color segmentation analysis for lung fibrosis. Frozen lung samples underwent hydroxyproline analysis as described below. Lung tissue processing – following exsanguination and flushing of the pulmonary circulation to clear blood, the lungs were removed, placed in ice-cold 0.9% NaCl and processed on wet ice. Extraneous tissue was removed and whole lung weight recorded. […]

[3] = test system: fresh human PCLS from donors with pulmonary fibrosis; assay: Secreted biomarkers in fresh PCLS from pulmonary fibrosis donors; format: cell-based; details: PIPE-791 0.03, 0.3, 3 µM; 48 h
Text: Translationally, biomarker-based strategies for assessing aberrant extracellular matrix deposition and remodeling in the context of disease pathogenesis and compound efficacy have become increasingly relevant. For the PCLS gene expression studies, slices were preserved through slow cryogenic freezing of tissue. While this affords experimental flexibility, some physiological relevance is lost over the course of cryostorage and recovery (e.g., immune cell loss). To circumvent this, fresh PCLS from two donors with pulmonary fibrosis were generated and immediately placed into culture. For this experiment, well-established, secreted fibrotic markers that encompass fibrogenesis and tissue remodeling were measured: C3M (a marker of collagen III degradation and an indicant of ECM remodeling and tissue turnover), Pro-C3 (a neo-epitope fragment of collagen III and a marker of active fibrogenesis and fibrosis progression), and Pro-C6 (a neoepitope fragment of COLVIA3 and a marker of remodeling and wound healing). […] Media was then removed and analyzed for biomarker concentration.
PCLS cultures for secreted biomarker analysis were performed at Fraunhofer ITEM (Hanover, Germany) using tissue from pathologist qualified, pulmonary fibrosis patients. Tissue from individual donors and 2 lung regions were collected in accordance with policies approved by the Hanover Medical School ethics committee. Only fibrotic tissue was used for experiments. Region 1 consisted of subpleural tissue and Region 2 of central tissue. For each, lung lobes were filled with low-melting agarose then sectioned at 300 μm on a Krumdiek tissue slicer as described in Hesse et al., 2022. Slices were incubated in DMEM containing penicillin and streptomycin, two slices per region were used. […] Supernatant was collected and shipped to Nordic Bioscience (Herlev, Denmark) for C3M, Pro-C6 and Pro-C3 analysis. Donor information can be found in Additional File 1.

With `COc1ccc(NC(=O)N(c2ccccc2C(C)C)C2CCC(C(=O)O)CC2)c(OC(F)F)n1` (stereo not shown) [PIPE-791] the “body weight improvement over bleomycin alone” value ([1]; 0.03 mg/kg oral once a day) was 28%, the “lung hydroxyproline (collagen)” value ([1]; 0.03 mg/kg oral once a day, p = 0.077) was “trending decrease in collagen, the values did not reach statistical significance” and the “reduction in lung hydroxyproline” value ([1]; 0.3 mg/kg oral once a day) was 41%. The “body weight improvement over bleomycin alone” value ([1]; 0.3 mg/kg oral once a day) was 41%, the “reduction in BAL fluid TGFβ vs bleomycin/vehicle” value ([1]; 3 mg/kg oral once a day) was 51% and the “reduction in BAL fluid TIMP1 vs bleomycin/vehicle” value ([1]; 3 mg/kg oral once a day) was 57%. The “reduction in BAL fluid procollagen vs bleomycin/vehicle” value ([1]; 3 mg/kg oral once a day) was 65%, the “reduction in lung hydroxyproline” value ([1]; 3 mg/kg oral once a day) was 39% and the “body weight improvement over bleomycin alone” value ([1]; 3 mg/kg oral once a day) was 38%. The survival ([1]; 0.03, 0.3, 3 mg/kg groups, 3 mice died in bleomycin/vehicle group) was “no mice lost”, the “maximal inhibition of lung collagen” value ([1]; prophylactic, at 0.3 mg/kg (discussion)) was 40% and the “reduction in lung hydroxyproline compared to bleomycin/vehicle” value [2] was 40%. For the same compound, the “tissue collagen fraction (TCF), trichrome” value ([2]; p = 0.0017) was “nearly full reduction”, the “secreted C3M” value [3] was “reduction in C3M secretion with PIPE-791 at all concentrations tested, with significance observed at 0.03 and 3 µM” and the “secreted Pro-C3” value [3] was “did not observe a significant decrease”. The “secreted Pro-C6” value [3] was “significant reduction in secreted Pro-C6 at all concentrations”.
